Two molecules from patent US20230255966A1, “A COMBINATION OF A CBP/P300 BROMODOMAIN INHIBITOR AND AN EGFR INHIBITOR FOR USE IN TREATING EGFR-MUTANT NSCLC” (TOLREMO THERAPEUTICS AG, priority 2020, published 2023) can be followed below.

Each structure is given as a SMILES string. Some results are limits rather than exact numbers.

In assay [1] the test system is HCC827 cells. Nature of the assay: Cell counting by nuclear fluorescent staining (Hoechst33342). It counts as cell-based. On the procedure:
Several plates were seeded, as for each time point of cell counting one plate was fixed and stained for analysis. […] Cell cultivation was continued until time of fixation and analysis for each plate. For extended time-points, medium and drugs were replenished twice weekly.
At the given time plates were washed 3 times with PBS and cells fixed with 80 μl 4% PFA for 10 min, RT. After 3 wash steps with PBS cells were stained with 10 μg/ml Hoechst33342 (Thermo Scientific H12492) in 100 μl PBS for 2 h, RT, dark. After 3× PBS washing-steps, Hoechst33342 signals were acquired on in an automated imaging mode using a Zeiss Apotome with motorized X/Y stage and a 5× objective. Image analysis and determination of Hoechst33342 spots (nuclei) was done using ImageJ. Number of nuclei was plotted as function of time using GraphPad Prism.

Another assay deals with T1, CBP bromodomain (Homo sapiens, UniProt Q92793).
T1 construct: purchased Cayman chemicals 600850
Nature of the assay: CBP bromodomain binding assay (TR-FRET). The note with it: class symbols. The protocol: Compounds solutions of 10 mM in DMSO were pre-diluted in DSMO to 25× stock solutions in DMSO. These were then diluted down to 4× in Assay buffer. A dilution series in Assay buffer was performed keeping the DMSO concentration stable. 5 μl compound in assay buffer was transferred into the assay plate (provided by assay kit) and the TR-FRET assay Cayman chemicals; 600850) was performed using the manufactor's instructions. […] The TR-FRET ratio was calculated by dividing 670 nm emission by 620 nm emission.

In assay [2] the test system is HCC827 cells. Nature of the assay: Label-free determination of cell proliferation (CELIGO). It counts as cell-based. Conditions: HCC827, combined with 100 nM osimertinib, 21 days (FIG. 9).
The next assay deals with T2, PBRM1(2) (Homo sapiens, UniProt Q86U86).
T2 construct: T7 phage strains displaying bromodomains were grown in parallel; purchased DiscoverX (BROMOscan / BromoKdMAX service); host or cells: T7 phage in E. coli host derived from BL21
Nature of the assay: BROMOscan BromoKdMAX. Format: binding. The protocol:
(§1) A BromoKdMAX was performed at DiscoverX.
(§2) The assay principle is the following: BROMOscan™ is a novel industry leading platform for identifying small molecule bromodomain inhibitors. Based on proven KINOMEscan™ technology, BRO-MOscan™ employs a proprietary ligand binding site-directed competition assay to quantitatively measure interactions between test compounds and bromodomains. This robust and reliable assay panel is suitable for high throughput screening and delivers quantitative ligand binding data to facilitate the identification and optimization of potent and selective small molecule bromodomain inhibitors.
(§3) The assay was conducted as follows: For the Bromodomain assays, T7 phage strains displaying bromodomains were grown in parallel in 24-well blocks in an E. coli host derived from the BL21 strain. E. coli were grown to log-phase and infected with T7 phage from a frozen stock (multiplicity of infection=0.4) and incubated with shaking at 32° C. until lysis (90-150 minutes). The lysates were centrifuged (5,000×g) and filtered (0.2 μm) to remove cell debris. […] The liganded beads were blocked with excess biotin and washed with blocking buffer (SeaBlock (Pierce), 1% BSA, 0.05% Tween 20, 1 mM DTT) to remove unbound ligand and to reduce non-specific phage binding. […] Test compounds were prepared as 1000× stocks in 100% DMSO. Kds were determined using an 11-point 3-fold compound dilution series with one DMSO control point. […] The compounds were then diluted directly into the assays such that the final concentration of DMSO was 0.09%. All reactions performed in polypropylene 384-well plates. Each was a final volume of 0.02 ml. […] The bromodomain concentration in the eluates was measured by qPCR.

Another assay concerns the target T3, FALZ (Homo sapiens, UniProt Q12830).
T3 construct: T7 phage strains displaying bromodomains were grown in parallel; purchased DiscoverX (BROMOscan / BromoKdMAX service); host or cells: T7 phage in E. coli host derived from BL21
Nature of the assay: BROMOscan BromoKdMAX. Format: binding. On the procedure:
as §1, §2, §3

The next assay deals with T4, TRIM33(PHD, Bromo.) (Homo sapiens, UniProt Q9UPN9).
T4 construct: TRIM33(PHD, Bromo.)
Nature of the assay: BROMOscan BromoKdMAX. It counts as binding. The protocol: as §1, §2, §3

The target in another assay is T5, BAZ2A (Homo sapiens, UniProt Q9UIF9).
T5 construct: T7 phage strains displaying bromodomains were grown in parallel; purchased DiscoverX; host or cells: T7 phage in E. coli host derived from BL21
Nature of the assay: BROMOscan BromoKdMAX. Format: binding. The protocol:
as §1, §2, §3

The next assay addresses T6, PBRM1(5) (Homo sapiens, UniProt Q86U86).
T6 construct: T7 phage strains displaying bromodomains were grown in parallel; purchased DiscoverX (BROMOscan / BromoKdMAX service); host or cells: T7 phage in E. coli host derived from BL21
Nature of the assay: BROMOscan BromoKdMAX. Format: binding. On the procedure: as §1, §2, §3

The target in a further assay is T7, BRD1 (Homo sapiens, UniProt O95696).
T7 construct: T7 phage strains displaying bromodomains were grown in parallel; purchased DiscoverX; host or cells: T7 phage in E. coli host derived from BL21
Nature of the assay: BROMOscan BromoKdMAX. Format: binding. The protocol: as §1, §2, §3

The target in a further assay is T8, BRPF3 (Homo sapiens, UniProt Q9ULD4).
T8 construct: T7 phage strains displaying bromodomains were grown in parallel; purchased DiscoverX; host or cells: T7 phage in E. coli host derived from BL21
Nature of the assay: BROMOscan BromoKdMAX. Format: binding. The protocol:
as §1, §2, §3

For another assay, the target named is T9, ATAD2A (Homo sapiens, UniProt Q6PL18).
T9 construct: T7 phage strains displaying bromodomains were grown in parallel; purchased DiscoverX; host or cells: T7 phage in E. coli host derived from BL21
Nature of the assay: BROMOscan BromoKdMAX. It counts as binding. The protocol:
as §1, §2, §3

Another assay has as its target T10, GCN5L2 (Homo sapiens, UniProt Q92830).
T10 construct: T7 phage strains displaying bromodomains were grown in parallel; purchased DiscoverX (BROMOscan / BromoKdMAX service); host or cells: T7 phage in E. coli host derived from BL21
Nature of the assay: BROMOscan BromoKdMAX. Format: binding. On the procedure: as §1, §2, §3

The target in another assay is T11, ATAD2B (Homo sapiens, UniProt Q9ULI0).
T11 construct: T7 phage strains displaying bromodomains were grown in parallel; purchased DiscoverX; host or cells: T7 phage in E. coli host derived from BL21
Nature of the assay: BROMOscan BromoKdMAX. It counts as binding. The protocol: as §1, §2, §3

For a further assay, the target named is T12, SMARCA2 (Homo sapiens, UniProt P51531).
T12 construct: T7 phage strains displaying bromodomains were grown in parallel; purchased DiscoverX (BROMOscan / BromoKdMAX service); host or cells: T7 phage in E. coli host derived from BL21
Nature of the assay: BROMOscan BromoKdMAX. It counts as binding. The protocol: as §1, §2, §3

The target in another assay is T13, SMARCA4 (Homo sapiens, UniProt P51532).
T13 construct: T7 phage strains displaying bromodomains were grown in parallel; purchased DiscoverX (BROMOscan / BromoKdMAX service); host or cells: T7 phage in E. coli host derived from BL21
Nature of the assay: BROMOscan BromoKdMAX. Format: binding. The protocol: as §1, §2, §3

The next assay addresses T14, BAZ2B (Homo sapiens, UniProt Q9UIF8).
T14 construct: T7 phage strains displaying bromodomains were grown in parallel; purchased DiscoverX; host or cells: T7 phage in E. coli host derived from BL21
Nature of the assay: BROMOscan BromoKdMAX. Format: binding. The protocol: as §1, §2, §3

For another assay, the system named is NCI-H1975 xenografts. Nature of the assay: NCI-H1975 xenograft tumor growth. Format: in vivo, NMRI-Nude mice. On the procedure:
Tumor volume was measured using a manual caliper two to three times a week. The tumor volume was calculated using the formula: lager tumor diameter x square of the smaller tumor diameter divided by 2. Based on a linear fit of the mean tumor volumes the slopes of the curves were compared by regression analysis (two-tailed).
The response was determined by comparing tumor volume change at time t to its baseline: % tumor volume change=ΔVolt=100%×((Vt−Vinitial)/Vinitial). The Best Response was the minimum value of ΔVolt for t≥10 d. For each time t, the average of ΔVolt from t=0 to t was also calculated. The BestAvgResponse is defined as the minimum value of this average for t≥10 d. This metric captures a combination of speed, strength and durability of response into a single value. […] Mice that were sacrificed because of an adverse event before they had completed 14 d on trial were removed from the data set.
The response was determined by comparing tumor volume change at time t to its baseline: % tumor volume change=ΔVolt=100%×((Vt−Vinitial)/Vinitial). The Best Response was the minimum value of ΔVolt for t≥6 d. For each time t, the average of ΔVolt from t=0 to t was also calculated. The BestAvgResponse is defined as the minimum value of this average for t≥10 d. This metric captures a combination of speed, strength and durability of response into a single value. […] Mice that were sacrificed because of an adverse event before they had completed 14 d on trial were removed from the data set.

The mark [3] stands for this setting: 2 mg/kg osimertinib in combination with 90 mg/kg Compound C.

T6 sequence (Q86U86 653-763 limits assumed): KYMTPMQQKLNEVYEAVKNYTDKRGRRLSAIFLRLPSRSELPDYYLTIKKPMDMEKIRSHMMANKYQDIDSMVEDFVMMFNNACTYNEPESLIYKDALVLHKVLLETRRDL
T2 sequence (Q86U86 177-287 limits assumed): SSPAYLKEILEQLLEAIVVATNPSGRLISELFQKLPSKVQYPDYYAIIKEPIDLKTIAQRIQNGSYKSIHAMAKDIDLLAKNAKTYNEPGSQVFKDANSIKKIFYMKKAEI
T14 sequence (Q9UIF8 2060-2164 limits assumed): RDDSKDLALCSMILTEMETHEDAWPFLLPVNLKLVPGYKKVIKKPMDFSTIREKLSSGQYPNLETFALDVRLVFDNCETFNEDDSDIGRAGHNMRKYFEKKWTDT
T13 sequence (P51532 1453-1564 limits assumed): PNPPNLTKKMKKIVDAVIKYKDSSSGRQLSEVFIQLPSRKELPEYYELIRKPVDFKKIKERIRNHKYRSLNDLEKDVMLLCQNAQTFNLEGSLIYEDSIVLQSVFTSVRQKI
T11 sequence (Q9ULI0 951-1066 limits assumed): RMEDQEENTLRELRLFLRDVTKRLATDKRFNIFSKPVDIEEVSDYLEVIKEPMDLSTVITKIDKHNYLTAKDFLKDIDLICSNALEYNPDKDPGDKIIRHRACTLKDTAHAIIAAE
T5 sequence (Q9UIF9 1793-1897 limits assumed): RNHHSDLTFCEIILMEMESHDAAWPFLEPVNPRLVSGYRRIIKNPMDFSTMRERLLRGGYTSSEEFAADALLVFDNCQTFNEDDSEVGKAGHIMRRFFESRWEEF
T4 sequence (Q9UPN9 whole entry): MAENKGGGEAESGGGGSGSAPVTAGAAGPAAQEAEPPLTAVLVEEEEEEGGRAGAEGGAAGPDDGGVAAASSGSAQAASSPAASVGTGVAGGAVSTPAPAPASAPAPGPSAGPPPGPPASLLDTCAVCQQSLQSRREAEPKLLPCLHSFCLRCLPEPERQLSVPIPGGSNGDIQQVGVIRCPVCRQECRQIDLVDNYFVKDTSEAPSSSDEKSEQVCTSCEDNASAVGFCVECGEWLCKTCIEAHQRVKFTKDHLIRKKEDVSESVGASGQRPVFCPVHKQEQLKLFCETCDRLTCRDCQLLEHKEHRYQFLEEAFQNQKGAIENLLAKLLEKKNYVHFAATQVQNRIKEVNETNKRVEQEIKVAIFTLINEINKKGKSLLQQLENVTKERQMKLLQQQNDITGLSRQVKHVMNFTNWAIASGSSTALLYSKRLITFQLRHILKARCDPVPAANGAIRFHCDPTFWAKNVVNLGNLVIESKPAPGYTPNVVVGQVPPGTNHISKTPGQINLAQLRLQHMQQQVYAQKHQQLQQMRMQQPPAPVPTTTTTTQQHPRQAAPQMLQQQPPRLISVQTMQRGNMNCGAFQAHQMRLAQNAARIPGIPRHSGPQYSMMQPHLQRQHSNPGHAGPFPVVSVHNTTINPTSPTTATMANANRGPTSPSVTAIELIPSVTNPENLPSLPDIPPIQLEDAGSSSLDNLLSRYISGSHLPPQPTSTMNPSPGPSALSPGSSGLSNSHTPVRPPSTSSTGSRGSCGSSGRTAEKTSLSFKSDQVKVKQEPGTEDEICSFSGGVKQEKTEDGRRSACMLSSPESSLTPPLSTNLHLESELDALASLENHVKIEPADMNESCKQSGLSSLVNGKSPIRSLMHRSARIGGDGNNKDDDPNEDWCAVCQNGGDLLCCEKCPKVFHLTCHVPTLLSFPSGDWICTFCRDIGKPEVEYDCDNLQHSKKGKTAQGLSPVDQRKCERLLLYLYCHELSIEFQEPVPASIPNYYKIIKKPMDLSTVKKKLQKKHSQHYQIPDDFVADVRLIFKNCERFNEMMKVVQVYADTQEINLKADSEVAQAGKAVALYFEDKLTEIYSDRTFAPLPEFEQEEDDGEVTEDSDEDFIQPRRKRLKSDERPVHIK
T8 sequence (Q9ULD4 589-693 limits assumed): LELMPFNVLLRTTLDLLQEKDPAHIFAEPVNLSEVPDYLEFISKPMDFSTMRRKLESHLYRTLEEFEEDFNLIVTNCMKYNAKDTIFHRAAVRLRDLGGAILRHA
T1 sequence (Q92793 1085-1192 limits assumed): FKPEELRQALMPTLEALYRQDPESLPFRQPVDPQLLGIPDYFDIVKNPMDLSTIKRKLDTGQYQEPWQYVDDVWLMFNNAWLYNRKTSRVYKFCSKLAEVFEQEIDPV
T7 sequence (O95696 562-666 limits assumed): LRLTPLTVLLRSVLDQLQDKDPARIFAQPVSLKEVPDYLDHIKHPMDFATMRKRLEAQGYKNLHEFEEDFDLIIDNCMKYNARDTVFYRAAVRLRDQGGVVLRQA
T9 sequence (Q6PL18 980-1092 limits assumed): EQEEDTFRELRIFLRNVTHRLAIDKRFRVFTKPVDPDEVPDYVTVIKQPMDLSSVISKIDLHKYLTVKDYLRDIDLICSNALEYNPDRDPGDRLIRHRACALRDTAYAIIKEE
T10 sequence (Q92830 728-832 limits assumed): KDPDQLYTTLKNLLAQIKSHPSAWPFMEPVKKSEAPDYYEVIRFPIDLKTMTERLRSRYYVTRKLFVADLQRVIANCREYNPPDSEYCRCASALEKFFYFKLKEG
T12 sequence (P51531 1378-1506 limits assumed): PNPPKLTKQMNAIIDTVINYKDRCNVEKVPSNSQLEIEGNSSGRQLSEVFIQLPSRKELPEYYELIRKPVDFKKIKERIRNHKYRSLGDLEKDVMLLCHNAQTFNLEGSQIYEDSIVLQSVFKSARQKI

Usually EC50 stands for the concentration that produces a half-maximal response. Consider `CC(=O)N1C[C@H](c2nc(Nc3ccnc(C)c3)cc(-c3cccnc3)n2)CC[C@@H]1C` [Compound 00071, 1-((2S,5R)-2-methyl-5-(4-((2-methylpyridin-4-yl)amino)-6-(pyridin-3-yl)pyrimidin-2-yl)piperidin-1-yl)ethan-1-one], for which the “Effect on cell proliferation as single agent” value in the assay with HCC827 cells [1] (absence of EGFR inhibitor (FIG. 3 left)) is listed as “absence of an anti-proliferative effect”. In the assay on HCC827 cells [1] (in presence of 300 nM Gefitinib (FIG. 3)), the “Anti-proliferative activity / re-growth in presence of Gefitinib” value was “potentiate the effect of the EGFR inhibitor”. The molecule also showed an EC50 on CBP bromodomain of less than 0.2 µM.

One may read the Kd as the constant that tells how readily two partners part at equilibrium. High values mean lower affinity, low ones higher affinity. For the molecule `CC(=O)N1C[C@H](c2nc(Nc3cccc(-c4cn(C)nn4)c3)cc(-c3cnccn3)n2)CC[C@@H]1C` [Compound C, 1-((2S,5R)-2-methyl-5-(4-((3-(1-methyl-1H-1,2,3-triazol-4-yl)phenyl)amino)-6-(pyrazin-2-yl)pyrimidin-2-yl)piperidin-1-yl)ethan-1-one], the “Development of drug resistance / re-growth” value with HCC827 cells [2] is reported as “prevent the development of drug resistance”. Further, the Kd at PBRM1(2) was more than 10 µM; at FALZ, more than 10 µM; on TRIM33(PHD, Bromo.), more than 10 µM; on BAZ2A it was more than 10 µM; on PBRM1(5) it was more than 10 µM; on BRD1, more than 10 µM. The Kd at BRPF3, on ATAD2A, on GCN5L2, on ATAD2B, on SMARCA2 and on SMARCA4 was more than 10 µM throughout. This molecule yielded a Kd on BAZ2B of more than 10 µM. Moreover, in the assay on NCI-H1975 xenografts (setting [3]), the Response to therapy result is recorded as “response to therapy is significantly increased”. Moreover, in the assay with NCI-H1975 xenografts (setting [3]), the “Slope of linear regression fit of mean tumor volumes over time” value is −7.4. Also, in the assay on NCI-H1975 xenografts (2 mg/kg osimertinib in combination with 90 mg/kg Compound C, daily, orally), the “Tumor growth (slopes of mean tumor volume curves) versus osimertinib group” value was “significant difference”. For the same molecule, the “Tumor growth (slopes of mean tumor volume curves) versus vehicle” value in the assay on NCI-H1975 xenografts (90 mg/kg Compound C single agent, daily, orally) was “No significant difference”.
